Values after ≈ are worked out from the molar mass of the structure shown.
Key:
[1] = system: Botrytis spp; assay: Biocidal effect on spores of fungi that cause plant diseases and damage agricultural products; assay type: cell-based; settings: fungi spores (a mixture)
Protocol: (§1) Various fungi were used in the experiment—vegetative forms and spores of Alternaria alternata, Fusarium moniliforme, Botrytis spp. that cause diseases of plants and damage agricultural products. Biocidal properties were tested on spores of fungi cultures with optical density of the inoculated dose p E=0.310.

[2] = system: C. glabrata; assay: Minimum inhibiting concentration towards unicellular fungi, serial dilution; assay type: cell-based; settings: Sabouraud's agar
Protocol: (§2) Discovering the Minimum Inhibiting Concentration of the Inventive Substance (Forms A and B) Towards Unicellular Fungi
(§3) Fungi were grown in Sabouraud's agar. The effect of the substance was assessed by means of the serial dilution method.

[3] = system: C. albicans; assay: as above; assay type: cell-based; settings: Sabouraud's agar
Protocol: as §2, §3

[4] = system: C. krusei; assay: as above; assay type: cell-based; settings: Sabouraud's agar
Protocol: as §2, §3

[5] = system: S. cerevisiae; assay: as above; assay type: cell-based; settings: Sabouraud's agar
Protocol: as §2, §3

[6] = system: C. parapsilosis; assay: as above; assay type: cell-based; settings: Sabouraud's agar
Protocol: as §2, §3

[7] = system: F. moniliforme; assay: Biocidal effect on spores of fungi that cause plant diseases and damage agricultural products; assay type: cell-based, Fusarium moniliforme; settings: fungi spores (a mixture)
Protocol: as §1

[8] = system: Aspergillis niger; assay: Biocidal effect on spores of fungi that damage paper, wood and dyes; assay type: cell-based; settings: fungi spores (a mixture)
Protocol: (§4) Various fungi were used in the experiment—vegetative forms and spores of Aspergillis niger, Penicillium ochro-chloron that damage paper, wood and dyes thereof.
(§5) Biocidal properties were tested on spores of fungi cultures with optical density of the inoculated dose p E=0.310.

[9] = system: Penicillium ochro-chloron; assay: as above; assay type: cell-based; settings: fungi spores (a mixture)
Protocol: as §4, §5

[10] = system: Trichophiton gypseum; assay: Assessment of the fungicide effect, serial dilutions in microplates with neutralizer; assay type: cell-based; settings: for Concentration that destroys the fungi (fungicide effect): trichophyton genus, exposure time 24 h
Protocol: (§6) Strains of fungi of Candida genus (Candida albicans strain 15) that are resistant towards disinfecting agents and trichophyton (Trichophiton gypseum), which were cultivated in Sabouraud's agar, were used as test microorganisms.
(§7) Forms A and B were dissolved in sterile distilled water.
(§8) The method of serial dilutions in microplates was used in the experiment. The dissolved substance was titrated in the culture medium, then the test microorganisms were introduced and after certain intervals of disinfection time the neutralizer was added, namely 0.1% solution of citric acid. After the exposure during 1-2 minutes the contents of each well were plated to solid culture media.
(§9) The following concentrations of the substance were studied: 0.1-0.05-0.025-0.0125% of the drug for action duration of 1, 3, 5, 10, 20, minutes and 1.0-1.5-3.0 and 24 h.
(§10) All inoculations were incubated at an optimum temperature during 24 hours.
(§11) The fungicide effect was assessed according to the presence or absence of growing microorganisms in the culture media.

[11] = system: Candida albicans strain 15; assay: as above; assay type: cell-based; settings: for Concentration that destroys the fungi (fungicide effect): Candida genus, exposure time 24 h
Protocol: as §6, §7, §8, §9, §10, §11

[12] = system: Aspergillus; assay: Minimum inhibiting concentration towards multicellular fungi; assay type: cell-based
From the text: (§12) Discovering the Minimum Inhibiting Concentration of the Inventive Agent Towards Multicellular Fungi

[13] = system: Mucor; assay: as above; assay type: cell-based
From the text: as §12

[14] = system: A. alternata; assay: Biocidal effect on spores of fungi that cause plant diseases and damage agricultural products; assay type: cell-based, Alternaria alternata; settings: fungi spores (a mixture)
Protocol: as §1

[15] = read-out: Minimum inhibiting (biocidal) concentration (MIC) of the substance

Row | Compound | Minimum inhibiting (biocidal) concentration of the substance [1] [µg/mL] | Minimum inhibiting concentration [2] [µg/mL] | Minimum inhibiting concentration [3] [µg/mL] | Minimum inhibiting concentration [4] [µg/mL] | Minimum inhibiting concentration [5] [µg/mL] | Minimum inhibiting concentration [6] [µg/mL] | Minimum inhibiting (biocidal) concentration of the substance [7] [µg/mL] | Minimum inhibiting (biocidal) concentration (MIC) of the substance [8] [µg/mL] | Minimum inhibiting (biocidal) concentration (MIC) of the substance [9] [µg/mL] | Concentration that destroys the fungi (fungicide effect) [10] [%] | Concentration that destroys the fungi (fungicide effect) [11] [%] | Minimum inhibiting concentration (MIC) [12] [µg/mL] | Minimum inhibiting concentration (MIC) [13] [µg/mL] | Minimum inhibiting (biocidal) concentration of the substance [14] [µg/mL] | also measured
1 | 2,4-dioxo-5-(2-hydroxy-3,5-dichlorobenzylidiene)amino-1,3-pyrimidine salt | 8.0 | 0.125 | 1 | 1 | 0.125 | 0.250 | 8.0 | 2.0 | 8.0 | 0.1 | 0.025 | 2 | 1 | 4.0 | –
2 | OC(Cn1cncn1)(Cn1cncn1)c1ccc(F)cc1F [Fluconazole, 2-(2,4-difluorophenyl)-1,3-bis(1N-1,2,4-triazol-1-yl)-2-propanol, reference compound] | 64 | – | – | – | – | – | 64 | – | – | – | – | – | – | 32 | MIC ([2]; Nakaseomyces glabratus): 64 µg/mL (≈ 209 µM); MIC ([3]; Candida albicans): 2 µg/mL (≈ 6.53 µM); MIC ([4]; Pichia kudriavzevii): 32 µg/mL (≈ 104 µM); MIC ([5]; Saccharomyces cerevisiae): 0.125 µg/mL (≈ 0.408 µM); MIC ([6]; Lodderomyces parapsilosis): 0.25 µg/mL (≈ 0.816 µM); MIC [8, 15]: 64 µg/mL (≈ 209 µM); MIC [9, 15]: 64 µg/mL (≈ 209 µM); Fungicide effect (presence or absence of growth) ([10]; trichophyton, same conditions as the inventive substance): did not destroy the microbes; Fungicide effect (presence or absence of growth) ([11]; Candida, same conditions as the inventive substance): did not destroy the microbes; MIC [12]: 64 µg/mL (≈ 209 µM); MIC [13]: 64 µg/mL (≈ 209 µM)
3 | Dimer of sodium salt of 2,4-dioxo-5-(2-hydroxy-3,5-dichlorobenzylidiene)amino-1,3-pyrimidine | 4.0 | 0.250 | 1 | 1 | 0.125 | 0.125 | 4.0 | 1.0 | 4.0 | 0.1 | 0.025 | 2 | 1 | 2.0 | –
